Where two headings read alike, the source gives them in different places.

For data set [1], the target named is T1, 14-3-3ζ:BAD-112-136F interactions (Homo sapiens, UniProt P63104).
T1 construct: expressed in transfected cells; host or cells: NIH-3T3 fibroblasts, bi-directional pBI-CMV1 plasmid
T1 sequence (P63104 1-245): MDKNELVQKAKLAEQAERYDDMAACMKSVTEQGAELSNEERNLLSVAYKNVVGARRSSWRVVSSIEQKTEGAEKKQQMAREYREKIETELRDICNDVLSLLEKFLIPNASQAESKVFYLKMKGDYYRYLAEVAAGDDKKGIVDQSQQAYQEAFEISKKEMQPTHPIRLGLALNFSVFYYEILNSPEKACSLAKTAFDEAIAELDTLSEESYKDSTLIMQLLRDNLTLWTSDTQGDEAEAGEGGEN
The experiment in a line: BRET sensor screen for disruption of 14-3-3ζ-Rluc8:BAD-112-136F-mCitrine in living NIH-3T3 cells. To be noted: for inhibition / inhibition at 20 µM: NIH3T3, 3 h, read-out: BRET reduction on NIH-3T3. Set-up: inhibition: dose or concentration left out as unconfirmed; BRET reduction on NIH-3T3: unit not given here. Format: cell-based, murine. In a few lines: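 NIH-3T3 cells were transfected with the BRET sensor two days beforehand, then replated on poly-L-ornithine-coated plates and grown 24 h at 37 °C. Medium was then replaced with Krebs buffer (pH 7.4). Z′-score was calculated to judge HTS robustness.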

A further data set concerns NIH-3T3 cells. The experiment in a line: Hoechst/propidium iodide cell death assay in NIH-3T3. Format: cell-based. To be noted: for cytotoxicity at 20 µM: Mus musculus, NIH3T3, 24 h, read-out: Percentage of cell death % 24h NIH3t3. From the text: (§1) A high-content imaging system (PerkinElmer; Operetta CLS), was used to quantify cell death and apoptosis by calculating the number of propidium iodide-positive cells relative to Hoechst-positive cells, and the number of Annexin V-positive cells relative to Hoechst-positive cells, respectively.

Another data set has as its system HT-29 cells. The data set can be described thus: Hoechst/propidium iodide cell death assay in HT-29. Format: cell-based, human. The settings on record: for cytotoxicity at 20 µM: Homo sapiens; for %Cell death HT-29: time not given.
From the text: as §1

A further data set deals with Caco-2 cells. The data set is classed as cell-based. The settings on record: for Percentage of cell death % 24h CACO-2: 20 µM; for Percentage of cell death % 48h, Caco-2: 20 μM.
From the text: as §1

Data set [2] relates to HT-29 and Caco-2 CRC cells. The experiment in a line: Cell death in CRC cells, statements covering both HT-29 and Caco-2 (screen at 20 µM, dose-response). Format: cell-based, human. The procedure: Cells were plated at a density of 20,000 cells/well into 96-well plates (PerkinElmer; #6055302) and incubated overnight at 37 °C before the addition of the drugs. One hour prior to imaging, Hoechst 33342 (Invitrogen, #H3570) and propidium iodide (Invitrogen; #P3566) were added to the wells to achieve final concentrations of 50 ng/ml and 0.5 μg/ml, respectively. To measure apoptosis, AlexaFluor 488-conjugated Annexin V (ThermoFisher, Massachusetts, USA; #A13201) was also added at a dilution of 1:400 from the commercial stock. A high-content imaging system (PerkinElmer; Operetta CLS), was used to quantify cell death and apoptosis by calculating the number of propidium iodide-positive cells relative to Hoechst-positive cells, and the number of Annexin V-positive cells relative to Hoechst-positive cells, respectively. To assess caspase-dependent apoptosis, cells were pre-treated for 30 min with the caspase inhibitor Z-VAD-FMK (BD Biosciences, New Jersey, USA; #550377; 20 μM) or the negative control Z-FA-FMK (BD Biosciences; #550411; 20 μM) prior to the incubation of drugs.

Setting [3] is: NIH-3T3 cells, hits from the primary screen.
Where [4] appears, read: NIH-3T3 expressing BRET sensor, 20 µM, 3 h.
The mark [5] stands for this setting: HT-29, 24 h, 20 µM, 24 h, read-out: Percentage of cell death % 24h HT-29.
Where [6] appears, read: HT-29, 48 h, HT-29, 48h, 20 μM, read-out: Percentage of cell death % 48h, HT-29.
Setting [7] is: HT-29, 24 h, read-out: Percentage of cell death % 24h HT-29.
[8] abbreviates: HT-29, 48 h, read-out: Percentage of cell death % 48h, HT-29.

Regarding `COc1cc(C(=O)O)ccc1NC(=O)[C@@H]1N[C@@H](CC(C)(C)C)[C@](C#N)(c2ccc(Cl)cc2F)[C@H]1c1cccc(Cl)c1F` [RG7388], in data set [1] (setting [3]), the inhibition was found to be 41.6%. In addition, the inhibition at 20 µM in data set [1] (setting [4]) was determined as 41.6%. The cytotoxicity at 20 µM with NIH-3T3 cells (20 µM, 24 h) came out at 35.1%; in the data set with HT-29 cells (setting [5]), 9.54%; in the data set on HT-29 cells (setting [6]) it was 50%. In the data set on NIH-3T3 cells, the “Percentage of cell death % 48h, NIH3T3” value came out at 20.6788%. Besides, the “Percentage of cell death % 24h CACO-2” value with Caco-2 cells is on record as 4.882%. Moreover, the “Percentage of cell death % 48h, Caco-2” value in the data set with Caco-2 cells is recorded as 4.655%.
Regarding `C[C@H]1O[C@@H](O[C@H]2CC[C@@]3(C)[C@@H](CC[C@]4(C)[C@@H]3C=C[C@]35OC[C@@]6(CCC(C)(C)C[C@H]63)[C@@H](O)C[C@]54C)[C@]2(C)CO)[C@H](O)[C@@H](O[C@@H]2O[C@H](CO)[C@@H](O)[C@H](O)[C@H]2O)[C@H]1O` [Saikosaponin A], the inhibition at 20 µM in data set [1] is 53.8%. Also, the “BRET reduction on NIH-3T3” value in data set [1] (setting [3]) amounted to 53.7827. Further, the cytotoxicity at 20 µM in the data set with NIH-3T3 cells was 80.7%; in the data set on HT-29 cells (setting [7]) it was 93.8%; in the data set on HT-29 cells (setting [8]), 87.6%. Besides, in the data set with NIH-3T3 cells, the “Percentage of cell death % 48h, NIH3T3” value came out at 80.787%. Besides, the “%Cell death HT-29” value in the data set with HT-29 cells (HT-29) is given as 87.6%. For the same molecule, the “%Cell death Caco-2” value in the data set on Caco-2 cells worked out at 1.2%.
Regarding `COc1ccc2c(O[C@@H]3C[C@H]4C(=O)N[C@]5(C(=O)NS(=O)(=O)C6CC6)C[C@H]5/C=C\CCCCN(C)C(=O)[C@@H]4C3)cc(-c3nc(C(C)C)cs3)nc2c1C` [Simeprevir], the inhibition in data set [1] (setting [3]) was determined as 42.6%. In addition, the inhibition at 20 µM in data set [1] (setting [4]) came to 42.6%. The cytotoxicity at 20 µM with NIH-3T3 cells (20 µM, 24 h) is 19.3%; in the data set on HT-29 cells (setting [5]), 38.8%; with HT-29 cells (setting [6]) it was 70.9%. For the same molecule, the “Percentage of cell death % 48h, NIH3T3” value in the data set on NIH-3T3 cells turned out to be 93.5636%. In addition, the “%Cell death HT-29” value in the data set on HT-29 cells (HT-29) amounted to 70.9%. In addition, the “Percentage of cell death % 24h CACO-2” value in the data set on Caco-2 cells is 3.948%. Also, the “Percentage of cell death % 48h, Caco-2” value in the data set with Caco-2 cells was determined as 5.542%. Further, in the data set on Caco-2 cells (time not given, text says 48 h), the “%Cell death Caco-2” value worked out at 5.5%.
Consider `CCCSc1nc(N[C@@H]2C[C@H]2c2ccc(F)c(F)c2)c2nnn([C@@H]3C[C@H](OCCO)[C@@H](O)[C@H]3O)c2n1` [Ticagrelor], for which the inhibition in data set [1] (setting [3]) was 25.6%. Moreover, the inhibition at 20 µM in data set [1] (setting [4]) was 25.6%. In addition, the cytotoxicity at 20 µM was found to be 13.7% in the data set on NIH-3T3 cells (20 µM, 24 h); 1.2% in the data set on HT-29 cells (setting [5]); 3.67% in the data set on HT-29 cells (setting [6]). In addition, in the data set on NIH-3T3 cells, the “Percentage of cell death % 48h, NIH3T3” value is listed as 5.069%. The “Percentage of cell death % 24h CACO-2” value with Caco-2 cells turned out to be 3.005%. Also, in the data set on Caco-2 cells, the “Percentage of cell death % 48h, Caco-2” value is recorded as 3.049%.
Consider `COc1cc2nccc(Oc3ccc(NC(=O)Nc4cc(C)on4)c(Cl)c3)c2cc1OC` [Tivozanib (AV-951), Tivozanib], for which the inhibition in data set [1] (setting [3]) came out at 26.5%. Besides, the inhibition at 20 µM in data set [1] (setting [4]) came out at 26.5%. For the same molecule, the cytotoxicity at 20 µM is 10.8% in the data set on NIH-3T3 cells (20 µM, 24 h); 1.65% in the data set with HT-29 cells (setting [5]); 23% in the data set on HT-29 cells (setting [6]). Moreover, in the data set with NIH-3T3 cells, the “Percentage of cell death % 48h, NIH3T3” value is 31.2285%. Moreover, the “Percentage of cell death % 24h CACO-2” value in the data set on Caco-2 cells is listed as 5.391%. Also, in the data set on Caco-2 cells, the “Percentage of cell death % 48h, Caco-2” value came to 6.001%.
On to `Oc1cc(Cl)ccc1Oc1ccc(Cl)cc1Cl` [Triclosan], for which the inhibition at 20 µM in data set [1] was 35.6%. Also, in data set [1] (setting [3]), the “BRET reduction on NIH-3T3” value was 35.6098. In addition, in the data set with NIH-3T3 cells, the cytotoxicity at 20 µM came out at 58.2% and the “Percentage of cell death % 48h, NIH3T3” value was determined as 20.8092%. Moreover, the cytotoxicity at 20 µM in the data set with HT-29 cells (setting [7]) is 20.3%. In the data set on HT-29 cells (setting [8]), the cytotoxicity at 20 µM amounted to 21.6%. For the same molecule, in the data set on Caco-2 cells, the “Percentage of cell death % 24h CACO-2” value came out at 23.0449% and the “Percentage of cell death % 48h, Caco-2” value turned out to be 14.8508%.
With `CC(C)(C)C#Cc1cc(N(C(=O)[C@H]2CC[C@H](C)CC2)[C@H]2CC[C@H](O)CC2)c(C(=O)O)s1` [VX-222 (VCH-222, Lomibuvir), Lomibuvir], the inhibition in data set [1] (setting [3]) turned out to be 41.6%. The inhibition at 20 µM in data set [1] (setting [4]) was 41.6%. In addition, the cytotoxicity at 20 µM in the data set on NIH-3T3 cells (20 µM, 24 h) amounted to 5.5%; in the data set with HT-29 cells (setting [5]), 3.68%; with HT-29 cells (setting [6]) it was 78.5%. Further, in the data set with NIH-3T3 cells, the “Percentage of cell death % 48h, NIH3T3” value worked out at 38.6762%. The “%Cell death HT-29” value with HT-29 cells (HT-29) is 78.5%. Also, the “Percentage of cell death % 24h CACO-2” value in the data set on Caco-2 cells stood at 4.951%. Besides, in the data set on Caco-2 cells, the “Percentage of cell death % 48h, Caco-2” value turned out to be 36.3165%. For the same molecule, the “%Cell death Caco-2” value with Caco-2 cells (time not given, text says 48 h) was 36.3%. The “Lowest concentration that significantly induced cell death” value in data set [2] (dose-response 2.5-20 µM in HT-29 and Caco-2) is reported as 5 µM. Besides, in data set [2] (dose-response in CRC cells), the “Efficacy in the magnitude of cell death attained” value is recorded as “inferior to other candidates”.
In the case of `Cc1ccc(Sc2ccccc2N2CCNCC2)c(C)c1` [Vortioxetine (Lu AA21004) HBr, Vortioxetine], in data set [1] (setting [3]), the inhibition came to 35.4%. In addition, the inhibition at 20 µM in data set [1] (setting [4]) was determined as 35.4%. Further, the cytotoxicity at 20 µM in the data set on NIH-3T3 cells (20 µM, 24 h) came out at 78.5%; with HT-29 cells (setting [5]), 7.35%; in the data set on HT-29 cells (setting [6]) it was 52.1%. In addition, the “Percentage of cell death % 48h, NIH3T3” value with NIH-3T3 cells is given as 71.7539%. Besides, in the data set on HT-29 cells (HT-29), the “%Cell death HT-29” value is 52.1%. Besides, in the data set on Caco-2 cells, the “Percentage of cell death % 24h CACO-2” value amounted to 33.0298%. Besides, in the data set on Caco-2 cells, the “Percentage of cell death % 48h, Caco-2” value came to 76.1709%. The “%Cell death Caco-2” value in the data set with Caco-2 cells (time not given, text says 48 h) was determined as 52.1%.
Take Ivermectin: the “BRET reduction on NIH-3T3” value in data set [1] (setting [3]) was 41.4556. For the same molecule, the “BRET reduction on NIH-3T3” value in data set [1] (setting [4]) turned out to be 41.4556. In the data set on NIH-3T3 cells (20 µM, 24 h), the “Percentage of cell death % 24h NIH3t3” value came out at 38.0218%. In addition, the “Percentage of cell death % 48h, NIH3T3” value in the data set with NIH-3T3 cells came out at 70.901%. Besides, the “Percentage of cell death % 24h HT-29” value in the data set on HT-29 cells (20 µM, 24 h) came out at 6.036%. Moreover, the “Percentage of cell death % 48h, HT-29” value with HT-29 cells (HT-29, 48h, 20 μM) is 78.9396%. Further, the “%Cell death HT-29” value in the data set on HT-29 cells (HT-29) is recorded as 78.9%. Moreover, in the data set with Caco-2 cells, the “Percentage of cell death % 24h CACO-2” value was 4.453% and the “Percentage of cell death % 48h, Caco-2” value came out at 5.173%. For the same molecule, the “%Cell death Caco-2” value in the data set on Caco-2 cells (time not given, text says 48 h) stood at 5.2%.

These data come from publication PMC12603070, “A high-throughput screening approach to discover potential colorectal cancer chemotherapeutics: repurposing drugs to identify novel disruptors of 14-3-3 proteins” (Cell Death & Disease, 2025).
